The source of these data is US20190046507A1, “COMPOUNDS FOR THE TREATMENT OF MALARIA” (Merck Sharp & Dohme Corp., priority 2016, published 2019).

As usually defined, the IC50 is the point on the concentration scale where inhibition reaches its midpoint. Read a low IC50 as inhibition by little substance.

The test system of this test is asexual P. falciparum 3D7 parasites. The experiment in a line: P. falciparum 3D7 growth inhibition assay with LDH activity readout (Assay 1). The settings on record: Plasmodium falciparum; 3D7 strain, 72 h incubation, LDH activity read by absorbance at 650 nm. Type of test: cell-based. As for the experimental part: A modified version of the assay described in Gamo, F. J., Sanz, L. M., Vidal, J., de Cozar, C., Alvarez, E., Lavandera, J. L., Vanderwall, D. E., Green, D. V., Kumar, V., Hasan, S., Brown, J. R., Peishoff, C. E., Cardon, L. R., Garcia-Bustos, J. F., Nature, 465 (2010) 305-310 (Gamo et al.) was used to assess the activity of compounds against asexual P. falciparum 3D7 parasites. Compounds were pre-dispensed in 384-well plates, RPMI/AlbuMAX growth media was added and P. falciparum inoculated. Plates were incubated for 72 h and then frozen at −80° C. overnight. LDH activity was quantified with the modified cofactor 3-acetylpyridine adenine dinucleotide (APAD) (Sigma Aldrich) by measuring absorbance of the tetrazolium indicator nitro blue tetrazolium (NBT) (Sigma Aldrich) at 650 nm.
An inoculum of synchronous P. falciparum (3D7 strain) parasitized red blood cells (PRBC) at 0.7% parasitaemia and 2% haematocrit in RPMI-1640, 5% AlbuMAX, 2% D-sucrose, 0.3% glutamine and 150 μM hypoxanthine was used for the assay.
Compound master plates (384-well) were prepared by a 10 pt serial dilution of compounds, from 1 mM to 50.8 nM, in columns 3-12 and 13-22. DMSO was dispensed into columns 1 and 23 of the compound master plate to be used as the positive growth control (100% viability). […] Intermediate compound dilution plates were prepared by dispensing 1 μl from each well of the compound master plate into 11.5 μl of RPMI/AlbuMAX growth media. Duplicate assay plates (384-well) were then prepared by dispensing 0.5 μL of compound from the intermediate dilution plates into 9.5 μl of RPMI/AlbuMAX growth media. The parasite inoculum (30 μL) was dispensed into the assay plates containing compounds using a Multidrop dispenser (Thermo Scientific) such that the final assay volume was 40 μL and final compound concentration was 1 μM-0.05 nM (the volume of compound addition can be adjusted to the preferred and agreed screening concentration). The final DMSO concentration was 0.1% (ideally 0.2% to limit toxicity to parasites), but this is dependent on volume of compound DMSO stock solution that can be supplied. Plates were incubated at 37° C. for 72 h in an atmosphere of 5% CO2, 5% O2, […].
After 72 h of incubation, plates were frozen at −80° C. overnight and then thawed at room temperature for at least 4 h. To evaluate LDH activity, 45 μL of freshly made reaction mix (174 mM sodium L-lactate (Sigma Aldrich), 214 μM 3-acetyl pyridine adenine dinucleotide (APAD) (Sigma Aldrich), 270 μM nitro blue tetrazolium chloride (NBT) (Sigma Aldrich), 4.35 U/mL diaphorase (from Clostridium kluyveri) (Sigma Aldrich), 0.7% Tween 20, 100 mM Tris-HCl pH 7.5) was dispensed using a Multidrop dispenser (Thermo Scientific). Plates were shaken to ensure mixing and absorbance at 650 nm was monitored using a Perkin Elmer Envision plate reader after 30 min of incubation at room temperature. Data were normalized to percent growth inhibition using positive and negative controls, and analysed using TIBCO Spotfire software. […]
In the case of `CCOC(=O)NC1CCN(C(=O)c2cc(C)cc(CN3C(=N)NC(c4ccccc4)(c4ccccc4)C3=O)c2)CC1` [Compound 18], half-maximal inhibition (IC50) was put at 313 nM.
Take `CC(C)CC[C@]1(c2ccccc2)NC(=N)N(Cc2ccc(C(C)(C)C)c(C(=O)N(C)C(C)c3ccncc3)c2)C1=O` (stereo partly shown) [Compound 7]: the IC50 worked out at 25.1 nM.
As for `CC(C)CC[C@]1(c2ccccc2)NC(=N)N([C@@H]2CCc3ccc(C(=O)N4Cc5nccnc5C4)cc32)C1=O` [Compound 6], the IC50 came to 21.8 nM.
`Cc1cc(CN2C(=N)NC(c3ccccc3)(c3ccccc3)C2=O)cc(C(=O)N2CCNC(=O)C2)c1` [Compound 20] yielded an IC50 of 356 nM.
As to `CC(C)CC[C@]1(c2ccccc2)NC(=N)N(Cc2ccc(C(F)(F)F)c(C(=O)N3CC(O)C(F)C3)c2)C1=O` (stereo partly shown) [Compound 3], the IC50 amounted to 9.6 nM.
Take `Cc1ccc(CN2C(=N)NC(CC(C)C)(c3ccccc3)C2=O)cc1C(=O)NC1CC1` (stereo not shown) [Compound 16]: the IC50 was 240 nM.
`CC(=O)N1CCN(C(=O)c2cc(F)cc(CN3C(=N)NC(c4ccccc4)(c4ccccc4)C3=O)c2)CC1` [Compound 1] gave an IC50 of 4.5 nM.
As to `CC(C)(C)c1ccc(CN2C(=N)NC(c3ccccc3)(c3ccccc3)C2=O)cc1C(=O)N1Cc2nccnc2C1` [Compound 15], the IC50 is 239 nM.
Turning to `CC(C)CC[C@]1(c2ccccc2)NC(=N)N(Cc2ccc(C(C)(C)C)c(C(=O)NCc3cccnc3)c2)C1=O` [Compound 11], the IC50 worked out at 172 nM.
On to `Cc1ccc([C@@]2(CC3CC3)NC(=N)N(Cc3ccc(C(C)(C)C)c(C(=O)N4CCC(C)(C)C4)c3)C2=O)cc1` [Compound 9], for which the midpoint of inhibition, the IC50, lay at 86.6 nM.
In turn, `CC(C)CC[C@]1(c2ccccc2)NC(=N)N(Cc2ccc(C(C)(C)C)c(C(=O)N(C)Cc3ccon3)c2)C1=O` [Compound 10] registered an IC50 of 120 nM. This IC50 and that of the compound before are within 1.5-fold of each other.
The compound `Cc1ccc(C2(C3CCCCC3)NC(=N)N(Cc3ccc(C(C)(C)C)c(C(=O)N4Cc5ccccc5C4)c3)C2=O)cc1` (stereo not shown) [Compound 12] came in with an IC50 of 221 nM.
Compound `N=C1NC(C[C@@H]2CCCO2)(c2ccccc2)C(=O)N1Cc1ccc(C(F)(F)F)c(C(=O)N2Cc3nccnc3C2)c1` (stereo partly shown) [Compound 2] showed an IC50 of 5.8 nM.
In turn, `N=C1NC(c2ccc(F)cc2)(C2CCCCC2)C(=O)N1Cc1ccc(C(F)(F)F)c(C(=O)N2Cc3nccnc3C2)c1` (stereo not shown) [Compound 4] registered an IC50 of 9.7 nM.
`Cc1ccc(C2(c3ccc(C)cc3)NC(=N)N(Cc3ccc(C(C)(C)C)c(C(=O)N4Cc5nccnc5C4)c3)C2=O)cc1` [Compound 13] gave an IC50 of 223 nM.
With `CC(C)CC[C@]1(c2ccccc2)NC(=N)N(Cc2ccc(C(C)(C)C)c(C(=O)N(C)Cc3noc(C4CC4)n3)c2)C1=O` [Compound 17], the IC50 came to 310 nM.
As for `CC(C)CC[C@]1(c2ccccc2)NC(=N)N(Cc2ccc(C(C)(C)C)c(C(=O)N3CCn4ccnc4C3)c2)C1=O` [Compound 5], the IC50 turned out to be 21.2 nM.
The figure for `CC(C)CC[C@]1(c2ccccc2)NC(=N)N(Cc2ccc(C(C)(C)C)c(C(=O)N3CCOC[C@@H]3C)c2)C1=O` [Compound 8] is 56.6 nM; for `Cc1ccc(C2(CCC(C)C)NC(=N)N(Cc3ccc(C(C)(C)C)c(C(=O)N4Cc5cncnc5C4)c3)C2=O)cc1` (stereo not shown) [Compound 14] it is 225 nM.
